{"source": "paper PMC2700308", "about": "(Biochemistry, 2009)", "origin": "cited, not measured here", "system": "a protein", "conditions": "calorimetric; ref [33]", "data": [{"compound": "O=S(=O)(O)O", "note": "[sulfate]", "values": [{"measurement": "ΔH of binding of sulfate to a protein", "value": 4.3, "unit": "kcal/mol"}]}]}
